Source: PMC6709534 (Journal of the American Chemical Society, 2015)

Test system: H. pylori
Experiment: not given
Details: antibiotics used in multidrug therapy and moenomycin A; cited from earlier work

Row | Structure (SMILES) | IC90 of current antibiotics against H. pylori
1 | Cc1ncc([N+](=O)[O-])n1CCO [Metronidazole] | 16 000 ng/mL
2 | C[C@H]1COc2c(N3CCN(C)CC3)c(F)cc3c(=O)c(C(=O)O)cn1c23 [levofloxacin] | 1000 ng/mL
3 | CC[C@H]1OC(=O)[C@H](C)[C@@H](O[C@H]2C[C@@](C)(OC)[C@@H](O)[C@H](C)O2)[C@H](C)[C@@H](O[C@@H]2O[C@H](C)C[C@H](N(C)C)[C@H]2O)[C@](C)(OC)C[C@@H](C)C(=O)[C@H](C)[C@@H](O)[C@]1(C)O [clarithromycin] | 8000 ng/mL
4 | C=C(C/C=C(\C)CCC=C(C)C)CCC(C)(C)/C=C/CC/C(C)=C\CO[C@H](COP(=O)(O)O[C@H]1O[C@H](C(N)=O)[C@@](C)(O)[C@H](OC(N)=O)[C@H]1O[C@@H]1O[C@H](CO[C@@H]2O[C@H](CO)[C@@H](O)[C@H](O)[C@H]2O)[C@@H](O[C@@H]2O[C@H](C)[C@@H](O[C@@H]3O[C@H](C(=O)NC4=C(O)CCC4=O)[C@H](O)[C@H](O)[C@H]3O)[C@H](O)[C@H]2NC(C)=O)[C@H](O)[C@H]1NC(C)=O)C(=O)O [moenomycin A] | 2000 ng/mL
5 | CN(C)[C@@H]1C(O)=C(C(N)=O)C(=O)[C@@]2(O)C(O)=C3C(=O)c4c(O)cccc4[C@@](C)(O)[C@H]3C[C@@H]12 [tetracycline] | 500 ng/mL

Test system: H. pylori
Experiment: H. pylori growth on 5% horse blood agar
Type: cell-based, Helicobacter pylori
Details: versus ∼8 ng/mL of the 10 best MTAN inhibitors

Row | fold weaker than the 10 best MTAN inhibitors (IC90 ratio) | Structure (SMILES)
6 | 2000 fold | Cc1ncc([N+](=O)[O-])n1CCO [Metronidazole]
